How the values were obtained:
[1] = Stability in the stomach: hydrolysis rate at pH 1.0 and 2.0; assay type: physicochemical; conditions: 37° C.
Protocol: For this purpose, 1% galactomanno-oligosaccharide solutions were incubated for 3 h at a pH value of 1.0 (0.1 M HCl) and a pH value of 2.0 (0.01 M HCl) and a temperature of 37° C. After 60, 120, and 180 min, samples were taken from the reaction batch and analyzed by means of HPAEC. The control substances used were saccharose and 1-kestose.

[2] = test system: Reh(pre-B) on the colon cell line HT 29; assay: Adhesion assay: Reh (pre-B) on the colon cell line HT 29; assay type: cell-based; conditions: 10 μg/batch; for Mittelwert (%) (mean value), specific adhesion: percentage of the 100% value; for Index: relative to without carbohydrate = 1.00
Protocol: In the adhesion assay, the influence of galactomanno-oligosaccharides according to the present invention on the adhesion of B cell lines (for example, Reh) and normal human B lymphocytes to epithelial cells (colon tumor line HT 29) was measured. In the overlay assay used, the lymphocytes were intracellularly marked with calcein so as to make it possible to carry out the measurement by means of fluorometry.
First, coating with the adherent colon epithelial cell one (HT 29) in microtiter plates (24-hole Costar® plates) took place, with incubation (37° C., overnight) until a confluent bed has formed. This is done as much as possible in a serum-free medium Inoculum: 1×10^4 cells. Before the subsequent assay was carried out, the adherent cells were washed three times with PBS(phosphate-buffered physiological saline solution) and blocked for 1 h at room temperature with PBS+1% bovine serum albumin (BSA).
The untreated B cell lines or isolated B lymphocytes to be tested were marked with fluorescent calcein (1×10^7 cells in 2 mL of RPMI medium+HEPES+10 μL of calcein AM, 30 min, 37° C.; subsequently washed 2× with HBSS (Hanks buffer)+0.25% BSA) and 1×10^6 cells in 0.5 mL of PBS+0.25% […] per hole were incubated for 1 h. The culture plate was placed on a shaker for 10 sec, 0.5 mL of 0.2% glutaraldehyde in PBS+0.2% BSA per hole were added and incubated for 10 min on the shaker. The fluorescence of the plate was measured in a fluorescence measuring device ([…]).
The first measurement corresponds to the 100% value. Subsequently, the plate was washed four times and again measured. This measurement corresponds to the specific adhesion which is expressed as a percentage of the 100% value minus the autofluorescence value (unmarked cells). The control substances used were galactose and glucose.

[3] = biological target: T1, saccharase/isomaltase (SI complex) (Sus scrofa, UniProt P56729); assay: Cleavability by alpha-glucosidases of the small intestine, SI complex; assay type: in vitro ADME, pigs; conditions: SI enzyme complex 0.7 U, 1% in TRA buffer pH 7.0, 2 h, 37° C.
T1 construct: were isolated from the thin intestine of pigs using the method described by H. Heymann; from tissue; host or cells: pig small intestine (mucous membrane)
T1 sequence (P56729 with tags, fused parts or gaps): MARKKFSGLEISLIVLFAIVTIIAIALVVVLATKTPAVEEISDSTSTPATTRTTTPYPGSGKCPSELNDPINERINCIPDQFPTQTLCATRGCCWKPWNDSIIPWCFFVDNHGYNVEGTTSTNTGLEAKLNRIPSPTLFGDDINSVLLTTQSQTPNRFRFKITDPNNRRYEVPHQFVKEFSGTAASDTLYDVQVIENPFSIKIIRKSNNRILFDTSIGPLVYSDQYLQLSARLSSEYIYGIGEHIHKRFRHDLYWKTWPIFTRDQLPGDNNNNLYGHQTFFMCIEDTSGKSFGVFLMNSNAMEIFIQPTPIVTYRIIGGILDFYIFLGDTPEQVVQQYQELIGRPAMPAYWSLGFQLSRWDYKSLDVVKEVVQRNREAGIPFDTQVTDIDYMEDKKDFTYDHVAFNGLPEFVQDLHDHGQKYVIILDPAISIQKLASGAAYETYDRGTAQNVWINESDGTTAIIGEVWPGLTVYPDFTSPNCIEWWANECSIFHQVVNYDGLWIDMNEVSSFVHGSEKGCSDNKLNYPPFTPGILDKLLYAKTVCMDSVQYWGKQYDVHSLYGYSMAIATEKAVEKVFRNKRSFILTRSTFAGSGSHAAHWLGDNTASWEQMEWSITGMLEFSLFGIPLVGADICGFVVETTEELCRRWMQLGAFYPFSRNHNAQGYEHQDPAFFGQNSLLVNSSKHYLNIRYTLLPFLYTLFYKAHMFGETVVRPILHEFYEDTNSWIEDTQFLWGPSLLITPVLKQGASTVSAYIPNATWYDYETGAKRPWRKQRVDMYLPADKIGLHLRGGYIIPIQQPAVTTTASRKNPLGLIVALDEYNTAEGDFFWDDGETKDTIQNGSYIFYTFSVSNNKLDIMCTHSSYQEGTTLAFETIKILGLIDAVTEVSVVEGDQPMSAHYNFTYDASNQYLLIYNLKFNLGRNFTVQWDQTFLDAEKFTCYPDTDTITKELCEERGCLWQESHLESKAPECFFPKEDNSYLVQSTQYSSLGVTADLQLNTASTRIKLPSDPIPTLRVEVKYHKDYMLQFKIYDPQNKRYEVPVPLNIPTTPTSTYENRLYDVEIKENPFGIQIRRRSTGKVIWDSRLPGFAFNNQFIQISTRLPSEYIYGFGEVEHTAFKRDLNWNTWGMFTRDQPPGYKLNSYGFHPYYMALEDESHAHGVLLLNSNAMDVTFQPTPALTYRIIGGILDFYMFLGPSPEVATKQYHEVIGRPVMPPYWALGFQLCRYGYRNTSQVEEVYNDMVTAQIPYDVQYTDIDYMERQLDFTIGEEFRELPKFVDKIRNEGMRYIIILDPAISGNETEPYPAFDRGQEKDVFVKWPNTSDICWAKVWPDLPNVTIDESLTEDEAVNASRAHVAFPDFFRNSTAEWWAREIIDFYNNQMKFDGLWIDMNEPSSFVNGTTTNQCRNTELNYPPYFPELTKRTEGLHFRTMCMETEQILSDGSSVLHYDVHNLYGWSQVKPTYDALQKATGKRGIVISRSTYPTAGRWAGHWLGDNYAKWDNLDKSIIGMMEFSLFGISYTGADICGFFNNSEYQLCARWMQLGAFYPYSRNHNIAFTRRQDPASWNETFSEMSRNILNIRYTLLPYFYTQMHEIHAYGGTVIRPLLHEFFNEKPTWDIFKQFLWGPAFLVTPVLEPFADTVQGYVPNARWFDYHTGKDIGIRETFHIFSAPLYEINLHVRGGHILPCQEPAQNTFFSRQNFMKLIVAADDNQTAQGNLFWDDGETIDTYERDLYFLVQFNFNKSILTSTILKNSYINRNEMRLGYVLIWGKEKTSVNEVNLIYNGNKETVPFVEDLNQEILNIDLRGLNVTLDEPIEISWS
Excerpt: In vivo, the enzyme complexes saccharase/isomaltase and glucoamylase/maltase which are present in the mucous membranes of the small intestine ensure that after their passage into the small intestine, the disaccharides maltose and saccharose and in part also the malto-oligosaccharides are cleaved to form monosaccharides and as such are able to reach the circulatory system via the intestinal wall.
The stability of the galactomanno-oligosaccharides according to the present invention against these enzymes was tested as follows:
The enzyme complexes saccharase/isomaltase (SI complex) and glucoamylase/maltase (GM complex) were isolated from the thin intestine of pigs using the method described by H. Heymann (dissertation, Hannover, 1991).
The cleavability of the galactomanno-oligosaccharides according to the present invention by means of a-glucosidases present in the small intestine was determined as follows:
Triethanolamine (TRA) buffer, 0.1 M, pH 7.0
Galactomanno-oligosaccharides, 1% solution in TRA buffer
Maltose and saccharose as control substances, 1% in TRA buffer […]
At t=0, 0.7 U of the enzyme complex saccharase/isomaltase or glucoamylase/maltase were added to 1.2 mL of the carbohydrate solution which had been heated to a temperature of 37° C., mixed, and incubated at 37° C. […] The monosaccharides formed as well as the test substances used were quantitatively determined by means of HPAEC.

[4] = test system: Streptococcus sobrinus NCTC 10922; assay: Stability in the mouth: incubation with Streptococcus sobrinus; assay type: in vitro ADME; conditions: 1% in 20 mM carbonate buffer pH 7.5, 37° C., 2 h (120 min)
Protocol: (§1) Streptococcus mutans and Streptococcus sobrinus were cultivated for 24 h in liquid DSM medium 92 under anaerobic conditions at 37° C. At the end of the logarithmic growth phase, the cells were centrifuged off (15 min, 4000×g) and resuspended in 10% of the original 20 mM carbonate buffer, pH 7.5. Subsequently, 9 mL of a solution of the oligosaccharides according to the present invention (1% in 20 mM carbonate buffer, pH 7.5) were inoculated with 1 mL of the bacterial suspension and incubated for 2 h at 37° C.

[5] = test system: Streptococcus mutans DSM 20523; assay: Stability in the mouth: incubation with Streptococcus mutans; assay type: in vitro ADME; conditions: 1% in 20 mM carbonate buffer pH 7.5, 37° C., 2 h (120 min)
Protocol: as §1

[6] = test system: fresh tooth plaque (mixed culture); assay: Stability in the mouth: incubation with fresh tooth plaque; assay type: in vitro ADME, male volunteers; conditions: 10 mg plaque in 1 mL 1% solution, pH 7.5, 37° C., 2 h (120 min)
Protocol: Plaque samples were obtained from three male volunteers who had not brushed their teeth for three days, and in each case, 10 mg of the plaque were suspended in 1 mL of oligosaccharide solution (1% in 20 mM carbonate buffer, pH 7.5). In the course of the two-hour-long incubation time at 37° C., samples were taken and tested for their oligosaccharide content.

[7] = test system: resected colon pieces (distal segment); assay: Mucus secretion of resected colon pieces; assay type: cell-based; conditions: pig colon pieces, 5 h, 37°, Hanks buffer; galactomanno-oligosaccharides 1%
Protocol: After thoroughly cleaning the resected colon of a freshly slaughtered pig, pieces measuring 1 cm^2 were cut from the distal segment of said colon. The pieces thus prepared were incubated, while stirring and fumigating with oxygen, for 5 h at a temperature of 37° in Hanks buffer to which chloramphenicol and ampicillin (50 μg/mL each) had been added. The buffer additionally contained 1% of the galactomanno-oligosaccharides produced according to the present invention and to be tested for their stimulating effect on the mucus secretion. As a control, 10 colon segments were used in each batch to be tested. One of the batches contained hydrocortisone which is normally used in the treatment of inflammatory intestinal diseases.
As a measure for an increase in the mucus secretion, the increase in the total carbohydrate content in the supernatant portion was measured. For this purpose, during the incubation, samples were collected at various times, and 20 μL of resorcin solution (6 mg/mL) and 100 μL of 75% sulfuric acid were added to 10 μL of each sample, and after an incubation time of 60 min at 80° C., the extinction was measured at λ=450 nm.

[8] = test system: E. coli, 2 strains; assay: Adhesion of pathogenic microorganisms to human uroepithelial cells, E. coli; assay type: cell-based; conditions: human uroepithelial cells preincubated with the carbohydrate
Protocol: (§2) Human uroepithelial cells obtained by means of centrifugation from first morning urine
(§3) Staphylococcus aureus, 2 strains, and E. coli, 2 strains, each as suspension with 10^9 microorganisms/mL
(§4) The epithelial cells and the suspension of microorganisms were combined and incubated for 30 min at 37° C. Subsequently, the epithelial cells were separated from the nonadherent microorganisms by means of membrane filtration (8 μ). The filters were repeatedly washed and placed into physiological saline solution, and the epithelial cells were suspended in said solution. After centrifuging the suspension in saline solution, the pellet was placed on a microscopic slide and stained according to May-Grünwald and Giemsa. The number of the microorganisms adhering to 50 epithelial cells as counted. The number represented the blank reading. Epithelial cells without the addition of a suspension of microorganisms served as the control.
(§5) In the main test, epithelial cells were first incubated for 1, 2, and 3 h with galactomanno-oligosaccharide solutions of different concentrations. They were subsequently combined with the suspension of microorganisms and treated as described above. The number of microorganisms adhering to 50 epithelial cells represented the measured value.

[9] = test system: Staphylococcus aureus, 2 strains; assay: Adhesion of pathogenic microorganisms to human uroepithelial cells, Staphylococcus aureus; assay type: cell-based; conditions: human uroepithelial cells preincubated with the carbohydrate
Protocol: as §2, §3, §4, §5

[10] = test system: granulocytes; assay: Phagocytosis assay, granulocytes; assay type: cell-based; conditions: 100 μg/batch, whole blood
Protocol: (§6) The influence of the galactomanno-oligosaccharides according to the present invention on the function of the phagocytes (mono-, granulocytes) can be determined by means of phagocytosis assays. During the phagocytosis stimulation, the phagocytes were first incubated with galactomanno-oligosaccharides (100 μg of glycan/0. 11 mL of whole blood, 37° C., 10 min). A corresponding blank was incubated for 10 min in an ice bath. Subsequently, the actual phagocytosis test was carried out under the following conditions:
(§7) 0.11 mL of the preliminary incubation solution was allowed to stand for 10 min in the ice bath; subsequently, 0.01 mL of nonopsonized E. coli (fluorescein isothiocyanate (FITC) marked, 10^9 per mL, ORPEGEN) or 0.01 mL of nonopsonized Staphylococcus aureus (15×10^6 per mL, FITC marked, MOLECULAR PROBES) were added. The batches were incubated (double determinations) for 10 min at 37° C. The batches were washed twice with 3 mL of washing buffer (ORPEGEN) each and centrifuged at 250×g for 5 min at 4° C. […]
(§8) The measurement was carried out in the flow cytometer (excitation: 488 nm, emission FL-1: 520 nm); monocytes and granulocytes can be distinguished from each other without separation (forward light scatter (FSC) versus ([…]) (sideways light scatter). The results are expressed as a percentage of the phagocytosis-positive cells (see Table VI below). […]

[11] = test system: monocytes; assay: Phagocytosis assay, monocytes; assay type: cell-based; conditions: E. coli nonopsonized, 100 μg/batch, whole blood
Protocol: as §6, §7, §8

SMILES: OC[C@H]1O[C@@](CO)(OC[C@@]2(O[C@H]3O[C@H](CO)[C@@H](O)[C@H](O)[C@H]3O)O[C@H](CO)[C@@H](O)[C@@H]2O)[C@@H](O)[C@@H]1O [1-Kestose, 1-kestose]
- Hydrolysis rate in % ([1]; pH 1 (0.1 M HCl), 60 min): 90%
- Hydrolysis rate in % ([1]; pH 1 (0.1 M HCl), 120 min): 100%
- Hydrolysis rate in % ([1]; pH 1 (0.1 M HCl), 180 min): 100%
- Hydrolysis rate in % ([1]; pH 2 (0.01 M HCl), 60 min): 16%
- Hydrolysis rate in % ([1]; pH 2 (0.01 M HCl), 120 min): 30%
- Hydrolysis rate in % ([1]; pH 2 (0.01 M HCl), 180 min): 43%

SMILES: O=C[C@H](O)[C@@H](O)[C@@H](O)[C@H](O)CO [D-Galactose]
- Mittelwert (%) (mean value), specific adhesion [2]: 51%
- Index [2]: 1.12

SMILES: O=C[C@H](O)[C@@H](O)[C@H](O)[C@H](O)CO [D-Glucose]
- Mittelwert (%) (mean value), specific adhesion [2]: 47%
- Index [2]: 1.11

SMILES: OC[C@H]1O[C@@](CO)(O[C@H]2O[C@H](CO)[C@@H](O)[C@H](O)[C@H]2O)[C@@H](O)[C@@H]1O [Saccharose, saccharose]
- Hydrolyserate (%) (Hydrolysis rate) [3]: 98%
- cleavage/hydrolysis of the carbohydrate [4]: completely hydrolyzed
- cleavage/hydrolysis of the carbohydrate [5]: completely hydrolyzed
- cleavage/hydrolysis of the carbohydrate [6]: completely hydrolyzed
- Hydrolysis rate in % ([1]; pH 1 (0.1 M HCl), 60 min): 24%
- Hydrolysis rate in % ([1]; pH 1 (0.1 M HCl), 120 min): 55%
- Hydrolysis rate in % ([1]; pH 1 (0.1 M HCl), 180 min): 61%
- Hydrolysis rate in % ([1]; pH 2 (0.01 M HCl), 60 min): 1%
- Hydrolysis rate in % ([1]; pH 2 (0.01 M HCl), 120 min): 2%
- Hydrolysis rate in % ([1]; pH 2 (0.01 M HCl), 180 min): 7%

SMILES: C[C@]12CCC(=O)C=C1CC[C@@H]1[C@@H]2[C@@H](O)C[C@@]2(C)[C@H]1CC[C@]2(O)C(=O)CO [hydrocortisone]
- increase in the mucus secretion compared to the control (total carbohydrate in supernatant) [7]: approximately 5.3 -fold

SMILES: OC[C@H]1O[C@H](O[C@]2(CO)O[C@H](CO[C@H]3O[C@H](CO)[C@@H](O)[C@H](O)[C@H]3O)[C@@H](O)[C@@H]2O)[C@H](O)[C@@H](O)[C@@H]1O [isomelzitose]
- number of microorganisms adhering to the epithelial cells [8]: not reduced
- number of microorganisms adhering to the epithelial cells [9]: not reduced

SMILES: OC[C@H]1O[C@@](CO)(OC[C@@]2(OC[C@@]3(O[C@H]4O[C@H](CO)[C@@H](O)[C@H](O)[C@H]4O)O[C@H](CO)[C@@H](O)[C@@H]3O)O[C@H](CO)[C@@H](O)[C@@H]2O)[C@@H](O)[C@@H]1O [nystose]
- number of microorganisms adhering to the epithelial cells [8]: not reduced
- number of microorganisms adhering to the epithelial cells [9]: not reduced

SMILES: OC[C@H]1O[C@H](OC[C@H]2O[C@H](O[C@]3(CO)O[C@H](CO)[C@@H](O)[C@@H]3O)[C@H](O)[C@@H](O)[C@@H]2O)[C@H](O)[C@@H](O)[C@H]1O [raffinose]
- number of microorganisms adhering to the epithelial cells [8]: not reduced
- Granulocyten (% positive Zellen), phagocytosis-positive cells ([10]; E. coli nonopsonized): 17.0%
- Granulocyten (% positive Zellen), phagocytosis-positive cells ([10]; Staph. aureus nonopsonized): 30.0%
- number of microorganisms adhering to the epithelial cells [9]: not reduced
- Monocyten (% positive Zellen), phagocytosis-positive cells [11]: 22.0%
